Measurements reported in patent US11596151B2, “Compositions for the protection of agrarian crops and use thereof” (priority 2017, dated 2023).

Experiment: Solubility of fluindapyr in test solvent at 140 g/L, crystal growth check after one week at 0° C.
Type: physicochemical
Set-up: key: PASS: A solution without crystal growth under the storage condition was considered a Pass
Protocol: In order to test the solubility of an active ingredient comprising an aminoindane amide active compound, fluindapyr was added into a test solvent at the concentration of 140 g/L under sufficient agitation. The test solvents were selected based on Hansen Solubility Parameters with a Relative Energy Difference (RED) of between 0.7 and 1.6. The completed dissolved solutions were further stored for one week at 0° C. to check if any crystals grew or not under the storage condition.

In the case of `CC1CC(C)(C)c2c(F)ccc(NC(=O)c3cn(C)nc3C(F)F)c21` (centres unmarked) [fluindapyr], the Dissolution (solvent 2-ethylhexanol) is reported as “FAIL”, the Dissolution (solvent N,N-dimethyldecanamide) is reported as “PASS” and the Dissolution (solvent N-butyl acetate) is reported as “FAIL”. For the same compound, the Dissolution (solvent N-heptane) was “FAIL”, the Dissolution (solvent O-dichlorobenzene) was “FAIL” and the Dissolution (solvent POWERBLOX SV-17) was “FAIL”. The Dissolution (solvent acetonitrile) was “FAIL”, the Dissolution (solvent dibutyl ether) was “FAIL” and the Dissolution (solvent diethylene glycol monoethyl ether) was “PASS”. The Dissolution (solvent diethylene glycol monomethyl ether) was “PASS”, the Dissolution (solvent diethylene glycol n-butyl ether acetate) was “FAIL” and the Dissolution (solvent diisobutyl ketone) was “FAIL”. For the same compound, the Dissolution (solvent dimethyl formamide) was “FAIL”, the Dissolution (solvent dipropylene glycol methyl ether acetate) was “FAIL” and the Dissolution (solvent dipropylene glycol n-butyl ether) was “FAIL”. For the same compound, the Dissolution (solvent dipropylene glycol n-propyl ether) was “FAIL”, the Dissolution (solvent dipropyleneglycol phenyl ether) was “FAIL” and the Dissolution (solvent ethoxytriglycol) was “FAIL”. The Dissolution (solvent ethylene glycol monobutyl ether) was “FAIL”, the Dissolution (solvent ethylene glycol n-butyl ether acetate) was “FAIL” and the Dissolution (solvent ethylene glycol phenyl ether) was “FAIL”. For the same compound, the Dissolution (solvent isobutyl heptyl ketone) was “FAIL”, the Dissolution (solvent methyl alcohol) was “FAIL” and the Dissolution (solvent methyl ethyl ketone) was “FAIL”. For the same compound, the Dissolution (solvent methyl isobutyl ketone) was “FAIL”, the Dissolution (solvent perchloroethylene) was “FAIL” and the Dissolution (solvent propylene carbonate) was “FAIL”. The Dissolution (solvent propylene glycol) was “FAIL”, the Dissolution (solvent propylene glycol diacetate) was “FAIL” and the Dissolution (solvent propylene glycol monomethyl ether acetate) was “FAIL”. The Dissolution (solvent propylene glycol n-butyl ether) was “FAIL”, the Dissolution (solvent propylene glycol phenyl ether) was “FAIL” and the Dissolution (solvent tetrahydrofuran) was “FAIL”. The Dissolution (solvent toluene) was “FAIL” and the Dissolution (solvent tripropylene glycol n-butyl ether) was “FAIL”.
